{"source": "patent US10479784B2", "about": "“Substituted pyrazin-2-amines as inhibitors of ATR kinase” (Vertex Pharmaceuticals Incorporated, priority 2008, dated 2019)", "note": "pKi: −log10 of the molar value."}
{"molecular_target": "full-length ATR (Homo sapiens (Human), UniProt Q13535)", "sequence (Q13535 whole entry)": "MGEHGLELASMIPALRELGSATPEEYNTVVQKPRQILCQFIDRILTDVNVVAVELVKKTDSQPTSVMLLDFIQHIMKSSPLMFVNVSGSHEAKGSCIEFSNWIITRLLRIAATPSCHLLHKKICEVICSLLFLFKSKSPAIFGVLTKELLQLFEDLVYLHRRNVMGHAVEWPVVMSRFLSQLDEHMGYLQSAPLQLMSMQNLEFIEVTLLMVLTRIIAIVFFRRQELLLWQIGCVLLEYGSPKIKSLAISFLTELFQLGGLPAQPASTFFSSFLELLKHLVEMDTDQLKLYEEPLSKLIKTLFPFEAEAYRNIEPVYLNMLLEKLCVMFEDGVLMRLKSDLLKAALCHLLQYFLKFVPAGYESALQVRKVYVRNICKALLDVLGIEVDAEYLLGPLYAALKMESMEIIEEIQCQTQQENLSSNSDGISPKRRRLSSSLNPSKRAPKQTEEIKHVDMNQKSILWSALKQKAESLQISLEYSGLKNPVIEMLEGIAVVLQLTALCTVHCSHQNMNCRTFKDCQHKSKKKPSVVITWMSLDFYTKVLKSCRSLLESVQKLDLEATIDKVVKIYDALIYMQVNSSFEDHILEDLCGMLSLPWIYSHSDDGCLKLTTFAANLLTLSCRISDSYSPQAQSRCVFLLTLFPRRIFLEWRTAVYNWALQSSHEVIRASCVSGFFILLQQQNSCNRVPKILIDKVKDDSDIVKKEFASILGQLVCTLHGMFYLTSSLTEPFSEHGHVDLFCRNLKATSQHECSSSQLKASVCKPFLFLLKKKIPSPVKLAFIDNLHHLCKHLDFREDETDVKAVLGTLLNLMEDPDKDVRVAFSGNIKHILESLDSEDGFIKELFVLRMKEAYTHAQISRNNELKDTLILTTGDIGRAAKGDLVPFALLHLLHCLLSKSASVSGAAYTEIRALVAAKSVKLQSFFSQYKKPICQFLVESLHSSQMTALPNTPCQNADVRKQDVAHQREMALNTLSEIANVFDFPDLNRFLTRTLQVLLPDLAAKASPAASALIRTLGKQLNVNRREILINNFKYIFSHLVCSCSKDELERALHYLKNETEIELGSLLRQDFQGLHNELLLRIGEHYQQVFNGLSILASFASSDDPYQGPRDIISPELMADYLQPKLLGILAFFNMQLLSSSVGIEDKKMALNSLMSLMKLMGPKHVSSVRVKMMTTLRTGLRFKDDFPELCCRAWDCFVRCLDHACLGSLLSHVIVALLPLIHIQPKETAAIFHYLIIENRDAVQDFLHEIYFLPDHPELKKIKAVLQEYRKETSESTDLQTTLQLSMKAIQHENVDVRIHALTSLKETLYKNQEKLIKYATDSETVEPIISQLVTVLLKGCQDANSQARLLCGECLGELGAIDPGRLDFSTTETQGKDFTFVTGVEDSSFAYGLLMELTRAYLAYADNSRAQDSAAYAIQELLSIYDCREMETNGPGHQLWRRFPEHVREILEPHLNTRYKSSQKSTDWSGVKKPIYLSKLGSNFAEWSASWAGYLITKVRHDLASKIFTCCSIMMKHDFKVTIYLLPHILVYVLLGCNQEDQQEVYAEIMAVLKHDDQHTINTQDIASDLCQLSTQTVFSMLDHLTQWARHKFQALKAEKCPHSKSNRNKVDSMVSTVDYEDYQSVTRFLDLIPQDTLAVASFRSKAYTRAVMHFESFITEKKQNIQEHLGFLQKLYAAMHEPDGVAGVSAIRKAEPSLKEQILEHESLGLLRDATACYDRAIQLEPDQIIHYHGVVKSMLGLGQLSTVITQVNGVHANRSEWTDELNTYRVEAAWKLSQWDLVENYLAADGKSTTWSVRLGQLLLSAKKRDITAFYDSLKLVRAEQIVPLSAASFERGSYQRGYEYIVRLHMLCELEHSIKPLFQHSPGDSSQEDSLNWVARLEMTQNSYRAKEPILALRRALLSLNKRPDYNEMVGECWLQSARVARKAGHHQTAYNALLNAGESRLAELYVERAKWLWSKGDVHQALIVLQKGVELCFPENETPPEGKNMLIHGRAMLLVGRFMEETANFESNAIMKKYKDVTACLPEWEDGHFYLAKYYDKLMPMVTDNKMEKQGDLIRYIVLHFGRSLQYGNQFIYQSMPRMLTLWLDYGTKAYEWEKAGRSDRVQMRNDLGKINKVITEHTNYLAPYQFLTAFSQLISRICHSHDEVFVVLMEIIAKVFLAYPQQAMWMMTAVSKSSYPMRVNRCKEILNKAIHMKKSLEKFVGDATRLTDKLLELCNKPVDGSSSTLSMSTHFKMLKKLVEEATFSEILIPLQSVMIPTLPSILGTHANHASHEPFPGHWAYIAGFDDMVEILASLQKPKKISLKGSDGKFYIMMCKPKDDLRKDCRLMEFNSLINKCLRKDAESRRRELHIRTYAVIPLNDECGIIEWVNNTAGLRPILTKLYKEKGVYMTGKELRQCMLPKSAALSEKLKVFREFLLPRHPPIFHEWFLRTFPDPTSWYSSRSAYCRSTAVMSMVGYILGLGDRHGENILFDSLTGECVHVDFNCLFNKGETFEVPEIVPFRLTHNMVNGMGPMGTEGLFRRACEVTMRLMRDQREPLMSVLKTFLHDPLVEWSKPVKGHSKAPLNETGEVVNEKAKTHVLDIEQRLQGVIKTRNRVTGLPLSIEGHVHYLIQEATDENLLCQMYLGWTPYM", "test": "ATR Inhibition Assay (radioactive-phosphate incorporation)", "assay_type": "biochemical", "settings": "read-out: ATR Ki", "experimental": "Compounds were screened for their ability to inhibit ATR kinase using a radioactive-phosphate incorporation assay. Assays were carried out in a mixture of 50 mM Tris/HCl (pH 7.5), 10 mM MgCl2 and 1 mM DTT. Final substrate concentrations were […] [γ-33P]ATP (3mCi 33P ATP/mmol ATP, Perkin Elmer) and 800 μM target peptide ([…]).\nAssays were carried out at 25° C. in the presence of 5 nM full-length ATR. An assay stock buffer solution was prepared containing all of the reagents listed above, with the exception of ATP and the test compound of interest. […] The plate was pre-incubated for 10 minutes at 25° C. and the reaction initiated by addition of 15 μL [γ-33P]ATP (final concentration 10 μM).\nThe reaction was stopped after […] by the addition of 30 μL 0.1M phosphoric acid containing 2 mM ATP. A multiscreen phosphocellulose filter 96-well plate (Millipore, Cat no. MAPHN0B50) was pretreated with 100 μL 0.2M phosphoric acid prior to the addition of 45 μL of the stopped assay mixture. […] After drying, 100 μL Optiphase ‘SuperMix’ liquid scintillation cocktail (Perkin Elmer) was added to the well prior to scintillation counting (1450 Microbeta Liquid Scintillation Counter, Wallac).\nAfter removing mean background values for all of the data points, Ki(app) data were calculated from non-linear regression analysis of the initial rate data using the Prism software package (GraphPad Prism version 3.0cx for Macintosh, GraphPad Software, San Diego Calif., USA)."}
{"smiles": "CN(C)C(=O)c1ccc(-c2cnc(N)c(-c3nnc(-c4ccccc4O)o3)n2)cc1", "note": "[IA-215, 4-[5-amino-6-[5-(2-hydroxyphenyl)-1,3,4-oxadiazol-2-yl]pyrazin-2-yl]-N,N-dimethyl-benzamide]", "pKi": "≥ 8.00"}
{"smiles": "Nc1ncc(-c2ccc(C(=O)N3CCCN(C=O)CC3)cc2)nc1-c1nnc(-c2ccccc2)o1", "note": "[IA-29]", "pKi": "≥ 8.00"}
{"smiles": "CN(C)C(=O)c1ccc(-c2cnc(N)c(-c3nnc(-c4ccc(O)cc4)o3)n2)cc1", "note": "[IA-87, 4-[5-amino-6-[5-(4-hydroxyphenyl)-1,3,4-oxadiazol-2-yl]pyrazin-2-yl]-N,N-dimethyl-benzamide]", "pKi": "≥ 8.00"}
{"smiles": "Nc1ncc(-c2ccc(O)nc2)nc1-c1nc2ccccc2[nH]1", "note": "[Compound I-137, 5-(5-amino-6-(1H-benzo[d]imidazol-2-yl)pyrazin-2-yl)pyridin-2-ol]", "pKi": "7.00 to 8.00"}
{"smiles": "CNCc1ccc(-c2nnc(-c3nc(-c4ccc(S(=O)(=O)C(C)C)c(Cl)c4)cnc3N)o2)cc1", "note": "[IA-305, 5-(3-chloro-4-isopropylsulfonyl-phenyl)-3-[5-[4-(methylaminomethyl)phenyl]-1,3,4-oxadiazol-2-yl]pyrazin-2-amine]", "pKi": "≥ 8.00"}
{"smiles": "Nc1ncc(-c2cccc(F)c2)nc1C(=O)Nc1ccccc1", "note": "[Compound I-9, 3-amino-6-(3-fluorophenyl)-N-phenylpyrazine-2-carboxamide]", "pKi": "5.30 to 7.00"}
{"smiles": "Nc1ncc(-c2ccc(C(=O)NCCN3CCCC3)cc2)nc1-c1nc2ccccc2[nH]1", "note": "[Compound I-152, 4-(5-amino-6-(1H-benzo[d]imidazol-2-yl)pyrazin-2-yl)-N-(2-(pyrrolidin-1-yl)ethyl)benzamide]", "pKi": "7.00 to 8.00"}
{"smiles": "COc1ccncc1NC(=O)c1nc(-c2ccc(S(C)(=O)=O)cc2)cnc1N", "note": "[VII-9]", "pKi": "≥ 8.00"}
{"smiles": "N#CCCN1CCN(C(=O)c2cccc(-c3cnc(N)c(C(=O)Nc4ccccc4)n3)c2)CC1", "note": "[Compound I-58, 3-amino-6-(3-(4-(2-cyanoethyl)piperazine-1-carbonyl)phenyl)-N-phenylpyrazine-2-carboxamide]", "pKi": "5.30 to 7.00"}
{"smiles": "CC(C)S(=O)(=O)c1ccc(-c2cnc(N)c(-c3nnc(C(=O)O)o3)n2)cc1", "note": "[IA-128, 5-[3-amino-6-(4-isopropylsulfonylphenyl)pyrazin-2-yl]-1,3,4-oxadiazole-2-carboxylic acid]", "pKi": "≥ 8.00"}
{"smiles": "Nc1ncc(-c2ccc(O)nc2)nc1C(=O)Nc1ccccc1", "note": "[Compound I-32, 3-amino-6-(6-hydroxypyridin-3-yl)-N-phenylpyrazine-2-carboxamide]", "pKi": "7.00 to 8.00"}
{"smiles": "CN(C)C(=O)c1ccc(-c2cnc(N)c(-c3nnc(-c4ccccc4C(F)(F)F)o3)n2)cc1", "note": "[IA-233, 4-[5-amino-6-[5-[2-(trifluoromethyl)phenyl]-1,3,4-oxadiazol-2-yl]pyrazin-2-yl]-N,N-dimethyl-benzamide]", "pKi": "7.00 to 8.00"}
{"smiles": "Nc1ncc(-c2ccc(S(=O)(=O)NCCO)cc2)nc1-c1nnc(-c2ccccc2)o1", "note": "[IA-26]", "pKi": "≥ 8.00"}
{"smiles": "Cc1ccc(-c2nnc(-c3nc(-c4ccc(C(=O)N(C)C)cc4)cnc3N)o2)cc1", "note": "[IA-263, 4-[5-amino-6-[5-(p-tolyl)-1,3,4-oxadiazol-2-yl]pyrazin-2-yl]-N,N-dimethyl-benzamide]", "pKi": "7.00 to 8.00"}
{"smiles": "Nc1ncc(-c2ccc3ncccc3c2)nc1-c1nnc(-c2ccccc2)o1", "note": "[IA-63]", "pKi": "7.00 to 8.00"}
{"smiles": "CN(C)C1CCN(C(=O)c2ccc(-c3cnc(N)c(-c4nnc(-c5ccccc5)o4)n3)c(C(F)(F)F)c2)CC1", "note": "[IA-22]", "pKi": "7.00 to 8.00"}
{"smiles": "N#Cc1cccc(NC(=O)c2nc(-c3cccnc3)cnc2N)c1", "note": "[Compound I-87, 3-amino-N-(3-cyanophenyl)-6-(pyridin-3-yl)pyrazine-2-carboxamide]", "pKi": "5.30 to 7.00"}
{"smiles": "CC[S+]([O-])c1ccccc1-c1cnc(N)c(-c2nnc(-c3ccccc3)o2)n1", "note": "(stereo not shown) [IA-256, 5-(2-ethylsulfinylphenyl)-3-(5-phenyl-1,3,4-oxadiazol-2-yl)pyrazin-2-amine]", "pKi": "≥ 8.00"}
{"smiles": "CC(C)S(=O)(=O)c1ccc(-c2cnc(N)c(-c3nnc(NC4CCCNC4)o3)n2)cc1", "note": "(stereo not shown) [IA-199, 5-[3-amino-6-(4-isopropylsulfonylphenyl)pyrazin-2-yl]-N-(3-piperidyl)-1,3,4-oxadiazol-2-amine]", "pKi": "5.30 to 7.00"}
